Results taken from paper PMC8175851, “Effects of Genetic Polymorphism in CYP2D6, CYP2C19, and the Organic Cation Transporter OCT1 on Amitriptyline Pharmacokinetics in Healthy Volunteers and Depressive Disorder Patients” (Frontiers in Pharmacology, 2021).

What was measured:
[1] = Adverse effects of amitriptyline in healthy volunteers (visual analogue scales, pupillometry); format: in vivo, human
Procedure: After overnight fasting, a single dose of 25 mg […] dura GmbH, Darmstadt, Germany) was orally administered to each subject. […] For the study in healthy volunteers, the primary endpoints were the AUCs of plasma AT and NT concentrations. Secondary endpoints were the other pharmacokinetic parameters of AT and NT, as well as heart rate, blood pressure, pupil size effects, and possible adverse events (headache, fatigue, visual or hearing impairments, restlessness, nausea, dizziness, dry mouth, tremor, as well as sensations of hypothermia and heart palpitations determined using a visual analogue scale test). Pharmacokinetic parameters were calculated by non-compartmental analysis using Phoenix 64 WinNonlin version 6.3 (Certara Inc., Princeton, NJ, United States). AUCinf of AT was calculated from the time of dosing using the linear/log trapezoidal rule and extrapolated to infinity based on the last predicted concentration and using the terminal elimination rate constant (lambda z). AUC of NT was calculated from the time of dosing until the last measurement at 48 h using the linear/log trapezoidal rule, as a decline in NT concentrations was not observed in some subjects and extrapolation to infinity thus not possible.

[2] = design: method as in Hardman et al., 2001; settings: ref Hardman et al., 2001; cited from earlier work
[3] = design: method as in Rudorfer and Potter, 1999; settings: ref Rudorfer and Potter, 1999; cited from earlier work

CN(C)CCC=C1c2ccccc2CCc2ccccc21 [Amitriptyline, amitriptyline]
serious adverse events ([1]; healthy volunteers, single oral 25 mg AT, entire study): no serious adverse events occurred
tolerability ([1]; healthy volunteers, single oral 25 mg AT, no placebo control): generally well-tolerated
time- and concentration-related adverse effects (dry mouth, visual or hearing impairment, restlessness, headache, nausea, dizziness, sensation of cold) and anticholinergic effects by pupillometry ([1]; visual analogue scales and pupillometry, 25 mg AT dose): not observed
time of peak fatigue symptoms after administration ([1]; visual analogue scales, healthy volunteers, 25 mg AT, no placebo control): 3 h
plasma protein binding [2]: 95%
excreted unchanged in urine [3]: less than 5%
